Like-named read-outs stand apart in the source and are kept apart here.
Key:
NTMT1 [1] = biological target: T1, NTMT1 (Homo sapiens, UniProt Q9BV86); details: cited from earlier work
T1 construct: made in house
T1 sequence (Q9BV86 1-223): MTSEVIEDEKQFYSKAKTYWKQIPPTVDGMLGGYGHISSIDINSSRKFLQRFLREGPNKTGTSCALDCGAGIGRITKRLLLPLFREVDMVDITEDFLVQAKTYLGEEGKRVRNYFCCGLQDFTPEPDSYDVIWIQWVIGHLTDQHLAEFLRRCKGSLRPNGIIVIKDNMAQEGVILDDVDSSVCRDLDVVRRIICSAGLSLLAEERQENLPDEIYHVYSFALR

[2] = tested on: panel of 41 methyltransferases; details: among a panel of 41 methyltransferases; cited from earlier work
NTMT1 [3] = biological target: T1, NTMT1; assay: NTMT1 biochemical assay (SAHH-coupled fluorescence assay)
HCT116 cells = assay: Cytotoxicity / cell viability, alamarBlue (resazurin) assay; assay type: cell-based; details: Homo sapiens, HCT-116, normal HCT116 cells
Excerpt: To test this hypothesis, compound 1a was selected to evaluate its effects on both wild-type and NTMT1 knockout HCT116 cells (FIG. 3B).

[4] = tested on: cellular α-N-terminal methylation level in HCT116 cells; assay: Cellular N-terminal methylation assay (Western blot, anti-me3-SPK); assay type: cell-based, human; details: for IC50: Homo sapiens, HCT-116, HCT116 cells, Western blot, n = 2
Method: (§1) FIGS. 4A-4C. Cellular N-terminal methylation assay of GD562 (1d), GD564 (1f), and GD573 (1e) in HCT116 cells. Representative Western blot results of the effects of GD562 (0-300 μM) on the cellular methylation level (n=2) (FIG. 4A). Representative Western blot results of the effects of GD564 (0-100 μM) on the cellular methylation level (n=2) (FIG. 4B). Representative Western blot results of the effects of GD573 (0-300 μM) on the cellular methylation level (n=2) (FIG. 4C). Image quantification was done using ImageJ software (NIH).
Cellular N-methylation level. […] The membrane was then blocked for 1 hour in 5% milk TBST solution and washed with 1×TBST solution three times. […] Image quantification was done using ImageJ software (NIH).

in vitro = details: PAMPA
Method: The stock solutions in 10 mM DMSO was diluted with PBS to a final concentration of 200 μM with 2% DMSO (v/v). Verapamil was added as a control. The pre-coated PAMPA plate system was warmed to room temperature, and the donor plate (bottom) was filled with 300 μL of the diluted sample solution while the acceptor plate (top) was filled with 200 μL of the buffer. […] The permeability of each compound was calculated using the formula:
• CD (t)=compound concentration in donor well at time t. • CA (t)=compound concentration in acceptor well at time t. • VD=donor well volume • VA=acceptor well volume • A=filter area • t=incubation time

me3-RCC1 [5] = assay: Cellular N-terminal methylation assay, me3-RCC1; assay type: cell-based, human; details: HCT116 cells; for IC50: Homo sapiens, HCT-116
Method: as §1, with “.” for “FIGS. 4A-4C. Cellular N-terminal methylation assay of GD562 (1d), GD564 (1f), and GD573 (1e) in HCT116 cells.”
(§2) […]. Cellular N-methylation level. […] The membrane was then blocked for 1 hour in 5% milk TBST solution and washed with 1×TBST solution three times. […] Image quantification was done using ImageJ software (NIH).

me3-SET [6] = assay: Cellular N-terminal methylation assay, me3-SET; assay type: cell-based; details: Homo sapiens, HCT-116, HCT116 cells
Method: as §1, with “.” for “FIGS. 4A-4C. Cellular N-terminal methylation assay of GD562 (1d), GD564 (1f), and GD573 (1e) in HCT116 cells.”
as §2

me3-SET [7] = details: at 300 μM in HCT116 cells, previously reported; cited from earlier work
me3-RCC1 [8] = details: cited from earlier work
[9] = recombinant NTMT1, n = 2, mean ± SD

| Compound | IC50 (NTMT1 [3]; [9]) | IC50 [4] | Papp at 5 h, 200 μM (in vitro) | GI50 (HCT116 cells) | also measured |
| --- | --- | --- | --- | --- | --- |
| NCCCC[C@H](NC(=O)[C@@H]1CCCN1C(=O)Cc1ccc(O)cc1)C(=O)N[C@@H](CCCN=C(N)N)C(N)=O [BM30] |  |  |  |  | IC50 (NTMT1 [1]; previously reported inhibitors): 0.89 ± 0.1 µM; Selectivity for NTMT1/2 [2]: over 100 fold |
| NCCCC[C@H](NC(=O)[C@@H]1CCCN1C(=O)Cc1cccc2ccccc12)C(=O)Nc1cccc(Br)c1 [Compound 1a] | 0.17 ± 0.008 µM |  |  | 48 to 135 µM |  |
| NCCCC[C@H](NC(=O)[C@@H]1CCCN1C(=O)Cc1cccc2ccccc12)C(=O)Nc1ccc(Br)cc1 [Compound 1b] | 0.18 ± 0.007 µM |  |  | 48 to 135 µM |  |
| NCCCC[C@H](NC(=O)[C@@H]1CCCN1C(=O)Cc1cccc2ccccc12)C(=O)NCc1ccccc1 [Compound 1c] | 0.91 ± 0.03 µM | < 300 µM | 0.24 ± 0.06 ×10⁻⁶ cm/s | > 300 µM |  |
| NCCCC[C@H](NC(=O)[C@@H]1CCCN1C(=O)Cc1cccc2ccccc12)C(=O)NCCc1ccccc1 [Compound 1d] |  | ~50 µM | 0.26 ± 0.06 ×10⁻⁶ cm/s | > 300 µM | Increase in cellular inhibition activity on me3-RCC1 compared to DC541 (me3-RCC1 [5]): over 2 fold; IC50 (me3-RCC1 [5]; read-out: Cellular IC50 on N-terminal methylation of RCC1): ~50 µM; IC50 (me3-RCC1 [5]; read-out: Cellular IC50 on me3-RCC1): ~50 µM; IC50 (me3-SET [6]; read-out: Cellular IC50 on N-terminal methylation of SET): ~50 µM; IC50 (me3-SET [6]; read-out: Cellular IC50 on me3-SET): ~50 µM; Difference between enzymatic and cellular IC50 values [4]: ~50 fold |
| NCCCC[C@H](NC(=O)[C@@H]1CCCN1C(=O)Cc1cccc2ccccc12)C(=O)NCCCc1ccccc1 [Compound 1e] | 0.65 ± 0.01 µM | ~100 µM | 0.17 ± 0.08 ×10⁻⁶ cm/s | > 300 µM |  |
| NCCCC[C@H](NC(=O)[C@@H]1CCCN1C(=O)Cc1cccc2ccccc12)C(=O)NCC1CCCCC1 [Compound 1f] | 0.94 ± 0.03 µM | ~100 µM | 0.47 ×10⁻⁶ cm/s | > 300 µM |  |

Now from value to compound, other results behind:

| IC50 (NTMT1 [3]; [9]) | IC50 [4] | Papp at 5 h, 200 μM (in vitro) | Compound | GI50 (HCT116 cells) | also measured |
| --- | --- | --- | --- | --- | --- |
| 0.58 ± 0.03 µM | < 300 µM | 0.6 ± 0.1 ×10⁻⁶ cm/s | NCCCC[C@H](NC(=O)[C@@H]1CCCN1C(=O)Cc1cccc2ccccc12)C(=O)NCc1cccc(Br)c1 [Compound 1g] |  |  |
| 0.82 ± 0.07 µM | < 300 µM | 0.9 ± 0.2 ×10⁻⁶ cm/s | NCCCC[C@H](NC(=O)[C@@H]1CCCN1C(=O)Cc1cccc2ccccc12)C(=O)NCc1ccc(Br)cc1 [Compound 1h] |  |  |
|  |  | 0.9 ×10⁻⁶ cm/s | NCCCC[C@H](NC(=O)[C@@H]1CCCN1C(=O)Cc1cccc2ccccc12)C(=O)NCCc1ccc(-c2ccccc2)cc1 [Compound 1j] |  | IC50 (NTMT1 [3]): 2.5 ± 0.09 µM |
| 0.69 ± 0.08 µM |  | 1.3 ×10⁻⁶ cm/s | NCCCC[C@H](NC(=O)[C@@H]1CCCN1C(=O)Cc1cccc2ccccc12)C(=O)NCCc1cccc(-c2ccccc2)c1 [Compound 1k] | 48 to 135 µM | Permeability (in vitro): ±0.4 10^−6 cm/s |
| 0.34 ± 0.03 µM |  |  | NCCCC[C@H](NC(=O)[C@@H]1CCCN1C(=O)Cc1cccc2ccccc12)C(=O)Nc1ccccc1C(N)=O [DC541] |  | Inhibition of me3-SET level (me3-SET [7]): did not show any inhibition; Decrease in inhibitory activity on recombinant NTMT1 compared to DC113 (NTMT1 [1]): ~3 fold; IC50/IC50 (DC541) (NTMT1 [3]; ratio of NTMT1 IC50 to that of DC541): 1.0; IC50 (me3-RCC1 [8]; HCT116, previously reported, read-out: Cellular IC50 on the me3-RCC1 level): ~100 µM; Enhancement of cellular inhibition compared to DC113 (me3-RCC1 [8]): about 10 fold |

Source: patent publication US20250115636A1, “PEPTIDOMIMETIC INHIBITORS OF PROTEIN N-TERMINAL […] 1, COMPOSITION, AND METHOD OF USE” (Purdue Research Foundation, priority 2022, published 2025)
